The text below walks through data of patent US20240075093A1, “COMPOSITIONS AND METHODS OF TREATING A PI3K MEDIATED DISEASE” (VIRGINIA TECH INTELLECTUAL PROPERTIES, INC., priority 2020, published 2024).

Where no end group is shown, it is not given here.

One series concerns U87MG cells. Put plainly: MTS cell viability assay. The series is classed as cell-based, human. The following applies: 20 μM TGX-221/50 μM TMZ plus αCT1. The method, then: Cell viability was measured by the MTS assay. P values were determined using the student t test or one-way ANOVA. Error bars represent three independent experiments.
Cell viability was determined using the MTS viability assay. The vehicle DMSO was the control and set as 100%. Treated cells were normalized to DMSO-treated cells. […] (FIG. 43D) Scores of Excess Over Bliss in FIG. 43C calculated using the Bliss Independence model. One-way ANOVA and student t test were used to determine statistical significance.
Cell viability was determined by the MTS cell viability assay (Promega) as described previously 21,24-27. In brief, 250 to 1,000 cells were plated in the wells of a 96-well plate-based upon the cell growth rate. Because the drug treatment usually takes 6-7 days, fast-growing cells could be over-grown if plated at a high cell density. For αCT1 treatment experiments, Applicant intended to plate cells at a low density to minimize the formation of gap junctions, and thus, more Cx43-hemichannels can be present. […] At each hour time point, the absorbance at 490 nm was measured using a FilterMax F3 microplate reader (Molecular Devices, LLC) according to the manufacturer's instructions. Percent cell viability was obtained by dividing the absorbance of treatment groups to those of untreated and respective vehicle control groups.
Background: Formazan colour is commonly taken as a measure of viable cells.

The nature of the next series: half-life of αCT1. The series is classed as in vitro ADME. The following applies: cell culture treatment.
Another series relates to p110β^hyper cells. Put plainly: melanoma cell viability (CellTiter Blue). It is filed as cell-based. The following applies: 50 μM Selectide-18, 6 days, daily repeated dosing. As to the method:
(§1) (FIG. 49A) Immunoblotting of p110s and signaling molecules. 3-actin (ACTB) was used as the loading control. (FIG. 49B) Summary of genetic mutations and protein levels in melanoma cells. Information regarding hot spot mutations was retrieved from e.g., DepMap. (FIG. 49C) Cells were treated with 0-40 μM of inhibitors. Cell viability was measured using CellTiter Blue. IC50s were calculated using Graphpad.
(§2) (FIG. 52A) Cells were treated with 10 μM Selectide-18-FITC for 1 h and imaged immediately or after 96h. (FIG. 52B) Selectide-18-FITC in melanoma cells were imaged at different times. FITC was quantified using Image J and FITC intensities at different times were normalized with that at 1 h. Half-life was calculated using GraphPad. (FIG. 52C) UACC-62, MelST, or MeWo cells were treated with 50 μM of Selectide-18 for 4 days with daily repeated dosing. (FIG. 52D) MelST or melanoma cells were treated with 50 μM of Selectide-18 for 6 days with daily repeated dosing. Cell viability was measured using Cell-Titer Blue. (FIG. 52E) MelST, UACC-62, or MeWo cells were treated with Scramble or Selectide-18 at different doses. IC50s were calculated using GraphPad. (FIG. 52F) Nod scid mice bearing UACC-62 subcutaneous tumors were treated with Selectide-18 (3 mg/kg) intratumoral injection/daily) for 16 days. Tumors were measured using a caliper and tumor volumes were calculated as (length×width2))/2. Student t test or ANOVA was used to determine P values. ns: not significant; **: P<0.01; ***P<0.001.
(In general: Resazurin is reduced to fluorescent resorufin, in cell work by metabolically active cells.)

A further series deals with MDA-MB-435S cells. Put plainly: melanoma cell viability (CellTiter Blue). The series is classed as cell-based. The following applies: 50 μM, 6 days, daily repeated dosing. As to the method:
as §1, §2

In another series the test system is UACC-62 xenografts. Put plainly: UACC-62 subcutaneous xenograft. It is filed as in vivo, Nod scid mice. The following applies: 3 mg/kg, intratumoral injection daily, 16 days. As to the method:
as §2

Another series concerns melanocyte MelST. The series is classed as cell-based. The method, then:
(FIG. 49A) Immunoblotting of p110s and signaling molecules. 3-actin (ACTB) was used as the loading control. (FIG. 49B) Summary of genetic mutations and protein levels in melanoma cells. Information regarding hot spot mutations was retrieved from e.g., DepMap. […] Cell viability was measured using CellTiter Blue. IC50s were calculated using Graphpad.
as §2, with “Student t test or ANOVA was used to determine P values. ns: not significant; **: P<0.01; ***P<0.001.” left out

The nature of series [1]: uptake and intracellular half-life of Selectide-18-FITC. It is filed as cell-based. The following applies: human, SKMEL-147 melanoma cells (intracellular); FITC intensity normalized to 1 h; read-out: half-life (HL) in cells (converted). As to the method:
as §2

The subject of a further series is other melanoma cells. Put plainly: melanoma cell viability (CellTiter Blue). The following applies: 50 μM Selectide-18, 6 days, daily repeated dosing. The series is classed as cell-based. As to the method:
as §2

Series [2] in a line: intracellular half-life of Selectide-18-FITC. It is filed as cell-based. The following applies: human, UACC-62 melanoma cells (intracellular); FITC intensity normalized to 1 h; read-out: half-life (HL) in cells (converted). As to the method: as §2
Another series concerns PI3K in MeWo cells. Put plainly: PI3K activity after Selectide-18. The following applies: 50 μM, 4 days, daily repeated dosing. The series is classed as cell-based. The method, then:
as §2

The test system of a further series is PI3K in MelST cells. Put plainly: PI3K activity after Selectide-18. The series is classed as cell-based. The following applies: 50 μM, 4 days, daily repeated dosing. The method, then:
as §2

Another series concerns PI3K in UACC-62 cells. Put plainly: PI3K activity after Selectide-18. The following applies: 50 μM, 4 days, daily repeated dosing. It is filed as cell-based. As to the method:
as §2

A word on the half-life: it is the time in which the quantity being followed falls by half. Regarding RQPKIWFPNRRKPWKKRPRPDDLEI [αCT1], in the series with U87MG cells, the “cytotoxic effect of TMZ/TGX-221 double combination upon addition of αCT1” value is “greatly increased the cytotoxic effect”. For the same sequence, the half-life in “half-life of αCT1” is approximately 48 h.

The term IC50 denotes the concentration at which inhibition is half-maximal. On to TKKSTKTINPSKYQTIRK [Selectide-18], for which the cell viability result in the series with p110β^hyper cells is “suppressed the viability”; with other melanoma cells, “without affecting”. Moreover, the “sensitivity to Selectide-18” value with MDA-MB-435S cells is reported as “sensitive”. The “in vivo growth of xenografts” value in the series with UACC-62 xenografts is “blocked the in vivo growth”. Also, the IC50 in the series on melanocyte MelST is approximately 2 mM. Further, the half-life in series [1] is 138 h; in series [2] it was 77 h. The PI3K activity entry in the series with PI3K in MeWo cells is “not”; in the series on PI3K in MelST cells, “not”; with PI3K in UACC-62 cells it was “inactivated PI3K”.
